For one test, the system named is apple scab. Kind of test: effectiveness against apple scab. The note with it: 400 parts per million. Format: in vivo.
In test [1] the test system is ADP induced aggregation of blood platelets (rat platelet rich plasma). In words: inhibition of ADP induced platelet aggregation in vitro (rat platelet rich plasma, change in optical density; Born). Format: cell-based. Conditions: for IC50: 10 min, read-out: IC50 ADP (concentration at which ADP induced platelet aggregation is inhibited by 50%). As for the experimental part: Platelet aggregation was initiated in vitro by 0.125 to 0.25 mg/ml of ADP. Rat blood was collected into 3.0% trisodium citrate solution (1:10) by cardiac puncture under methoxyfurane anesthesia. The blood was centrifuged at 120 g for 10 minutes at room temperature and the supernatant platelet rich plasma was removed and diluted with lactated Ringer's solution containing the pyridazine aggregation inhibiting agent (1.0:1.5). Samples of 1.0 ml were pipetted into plastic test tubes and incubated for 10 minutes. Plastic equipment was used for all procedures. The concentration of the pyridazine compound in micromoles inhibiting ADP aggregation by 50% (IC50) was determined using changes in optical density as an indicium of platelet aggregation.
*Concentration in micromoles at which ADP induced platelet aggregation is […]

In a further test the test system is tobacco black root rot. Kind of test: fungicide, killing and control of tobacco black root rot. Format: in vivo. The note with it: 25 parts per million.
A further test deals with rootknot nematode. In words: killing and control of rootknot nematode. Conditions: 2.4 pounds per 100 cu. ft. of soil. It is filed as in vivo.
In test [2] the test system is platelet aggregation / emboli formed in response to ADP. Kind of test: protection of mice from ADP challenge (inclined screen). It is filed as in vivo. Conditions: of ten mice; 60 mgs per kilogram orally; ADP via tail vein one hour after. The method, then: Emboli formed in the vascular system of mice in response to the administration of ADP cause a stroke-like response that prevents mice from staying on an inclined screen. To illustrate the platelet aggregation inhibition effect of the aminoalkylthiopyridazines, ten mice were dosed orally with 60 mgs per kilogram of body weight of the compound 6-chloro-3-(2-diisopropylamino)ethylthio)pyridazine. One hour after compound administration, the mice were challenged with ADP (0.05 M mole/kg) by injection via the tail vein and placed on an inclined screen. The unprotected control mice were unable to maintain their position on the screen.

The mark [3] stands for this setting: rat platelet rich plasma, 0.125 to 0.25 mg/ml of ADP, incubated 10 minutes.

Where two headings read alike, the source gives them in different places.

Turning to `c1cc(SCCN2CCOCC2)nnc1SCCN1CCOCC1` [3,6-Bis(2-(4-morpholinyl)ethylthio)pyridazine], the “effective against apple scab” value with apple scab worked out at 90%. Moreover, in test [1] (setting [3]), the IC50 was 13800 µM.

In the case of `CCN(CC)CCCSc1ccc(Cl)nn1` [3-Chloro-6-(3-(diethylamino)propylthio)pyridazine], the IC50 in test [1] (setting [3]) was determined as 3710 µM. In addition, the “effective as a fungicide in the killing and control of tobacco black root rot” value in the test on tobacco black root rot worked out at 100%.

Turning to `Clc1ccc(SCCN2CCCCC2)nn1` [3-Chloro-6-(2-(1-piperidinyl)ethylthio)pyridazine], in test [1] (setting [3]), the IC50 was found to be 3300 µM.

Turning to `CN(C)CCCSc1ccc(Cl)nn1` [3-Chloro-6-(3-dimethylamino)propylthio)pyridazinium methane sulfonate], in test [1] (setting [3]), the IC50 is 2400 µM.

Turning to `Clc1ccc(SCCCN2CCOCC2)nn1` [3-Chloro-6-(3-(4-morpholinyl)propylthio)pyridazine], the IC50 in test [1] (setting [3]) worked out at 10500 µM.

For the molecule `Clc1ccc(SCCN2CCCCCC2)nn1` [3-Chloro-6-(2-(hexamethyleneimino)ethylthio)pyridazine], in test [1] (setting [3]), the IC50 was determined as 2430 µM.

Regarding `Clc1ccc(SCCN2CCOCC2)nn1` [3-Chloro-6-(2-(4-morpholinyl)ethylthio)pyridazine], in test [1] (Rattus norvegicus, Platelet), the IC50 worked out at 2600 µM. Further, in the test on rootknot nematode, the “effective in the killing and control of rootknot nematode” value turned out to be 90%.

As to `CC(C)N(CCSc1ccc(Cl)nn1)C(C)C` [6-Chloro-3-(2-(diisopropylamino)ethylthio)pyridazine], the IC50 in test [1] (setting [3]) came out at 140 µM. The “platelet aggregation inhibiting activity (in words)” value in test [1] (Table I data) is recorded as “highly effective”. Moreover, in test [2], the “mice protected from the ADP challenge and remaining on the screen” value is 10 mice.

The values are drawn from patent publication US4058520A, “Aminoalkylthiopyridazine compounds” (The Dow Chemical Company, priority 1976, dated 1977).
